Common to all, as to format: biochemical
In assay [1] the target is T1, recombinant human PAI-1 (Homo sapiens, UniProt P05121).
T1 construct: purchased Molecular Innovations, Inc
Put plainly: Test Example 1: human PAI-1 inhibitory activity (tPA fluorogenic substrate assay, pH7.5 Tris buffer). The conditions noted are these: for inhibition at 5 µM: pH 7.5, compound 5 μM; for inhibition at 5 µM / inhibition at 10 µM / inhibition at 25 µM: read-out: Inhibition Rate of Human PAI-1 Activity (%); for inhibition at 10 µM: pH 7.5, compound 10 μM; for inhibition at 25 µM: pH 7.5, compound 25 μM. The text has this: <Composition of pH7.5 Tris Buffer)
0.01% Tween80 (SIGMA-ALDRICH Corporation)

Assay [2] has as its target T1, recombinant human PAI-1. In words: Test Example 4: human PAI-1 inhibitory activity (amount of PAI-1 bound to plate-coated tPA, ELISA). The conditions noted are these: PAI-1 50 ng/ml bound to coated tPA, read-out: Inhibition Rate of Human PAI-1 Activity (%); for inhibition at 0.1 µM: compound 0.1 μM. How it is done: 100 μl of tPA solution where one-chain recombinant tPA (hereinafter refereed to as tPA; American diagnostica, inc.) diluted with Buffer A to achieve a concentration of 10 μg/ml was added to each well of 96-well plate (Nunc Maxisorp), incubated for one night at […] to coated with tPA. Then, after suction of tPA solution from the 96-well plate, rinsed successively with Buffer A and Buffer B.
To Buffer B, solutions of the present application compound dissolved with DMSO (final DMSO concentration: 0.2%) and recombinant human PAI-1 (Molecular Innovations, Inc.) were added and blended so that the final concentrations would be 0.1 to 3.0 μM and 50 ng/ml respectively, and were incubated for 15 minutes on ice. These mixed solutions were added to rinsed 96-well plates at 100 μl/well, and incubated for 60 minutes at room temperature. To prepare calibration curve, PAI-1 solutions without the present application compound (solutions where the final concentrations being 100, 50, 25, 12.5, 6.25, 3.13, 1.56 ng/ml PAI-1) were added at 100 μl/well, and were incubated for 60 minutes at room temperature, as standard.
After incubation, the reaction mixture was suction removed, and rinsed each well with Wash Buffer. Next, anti-human PAI-1 monoclonal antibody (PROGEN Inc.) diluted with Buffer C to be 3.0 μg/ml was added to the 96-well plate at 100 μl/well, and incubated for 1 hour at room temperature. After rinsing each well with Wash Buffer, alkaline phosphatase-labeled goat anti-mouse IgG (H+L) (Jackson ImmunoResearch, Inc.) diluted with Buffer D to be 0.12 μg/ml was added at 100 μl/well, and incubated for 1 hour at room temperature. After rinsing each well with Wash Buffer, 1.0 mg/ml p-Nitrophenyl Phosphate (SIGMA) was added to the 96-well plate at 100 μl/well to start the reaction. After 30 to 60 minutes, 25 μl of 0.5 N NaOH was added to stop the reaction, and the absorbance was measured at 405 nm using a multiplate reader (GENios; TECAN G.M.B.H.).
Based on the calibration curve prepared from the standard wells, amounts of PAI-1 bound to tPA in the wells treated with the present application compound were calculated, and the PAI-1 inhibition rates by the present application compounds were obtained by the following equation. [PAI-1 Inhibition Rate (%)]=[1-(amount of PAI-1 bound to tPA on the well treated with the present application compound)/(amount of PAI-1 bound to tPA on the well treated with PAI-1 solution without present application compound (solution with the final concentration of 50 ng/ml PAI-1)]×100 <Composition of Buffer A> 0.1 M Tris-HCl-150 150 mM NaCl pH 7.7 <Composition of Buffer B> 50 mM sodium phosphate 0.1 M NaCl 1 mM EDTA pH 6.6 <Composition of Buffer C> 50 mM sodium phosphate 100 mM NaCl pH 7.4 <Composition of Buffer D> 0.01 M Tris-HCl 0.25 M NaCl pH 8.0 <Composition of Wash Buffer> 0.05% Tween 20 0.1% BSA in Buffer A <Composition of p-Nitrophenyl Phosphate Solution> 1 M Diethanolamine 0.5 mM MgCl2 p-Nitrophenyl phosphate pH 9.8

In assay [3] the target is T1, recombinant human PAI-1. Put plainly: Test Example 2: human PAI-1 inhibitory activity (tPA fluorogenic substrate assay, pH7.4 HEPES buffer). Conditions: for inhibition at 3 µM: pH 7.4, read-out: Inhibition Rate of Human PAI-1 Activity (%); for IC50: pH7.4 HEPES buffer, obtained from Table 5 results. How it is done: (§1) Except using the pH7.4 HEPES buffer instead of pH7.5 Tris buffer, and the change of incubation time from 15 minutes to 10 minutes of the mixed solution added by two-chain tPA solution, tests were carried out similarly to the Test Example 1.
<Compotion of pH7.4 HEPES Buffer>
0.1% Polyethylene glycol 8,000 (Hampton Research Corporation)
2 mM Dimethyldecylphoshine oxide [Apo-10] (Fluka Corporation)

For a further assay, the target named is T2, recombinant rat PAI-1 (Rattus norvegicus, UniProt P20961).
T2 construct: purchased Molecular Innovations, Inc
T2 sequence (P20961 24-402): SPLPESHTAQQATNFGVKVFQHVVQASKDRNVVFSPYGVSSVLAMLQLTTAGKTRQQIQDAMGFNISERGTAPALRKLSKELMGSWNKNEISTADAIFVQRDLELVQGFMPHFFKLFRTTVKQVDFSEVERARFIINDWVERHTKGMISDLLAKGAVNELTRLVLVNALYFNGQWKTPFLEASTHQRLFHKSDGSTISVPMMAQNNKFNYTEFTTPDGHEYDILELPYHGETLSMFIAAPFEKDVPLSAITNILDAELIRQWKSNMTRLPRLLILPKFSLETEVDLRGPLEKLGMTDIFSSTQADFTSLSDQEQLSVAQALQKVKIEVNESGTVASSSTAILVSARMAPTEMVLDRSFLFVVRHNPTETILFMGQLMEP
In words: Test Example 3: rat PAI-1 inhibitory activity (tPA fluorogenic substrate assay, pH7.4 HEPES buffer). Conditions: for IC50: pH7.4 HEPES buffer, obtained from Table 7 results; for inhibition at 10 µM: pH 7.4, read-out: Inhibition Rate of Rat PAI-1 Activity (%). How it is done:
as §1

T1 sequence (P05121 24-402): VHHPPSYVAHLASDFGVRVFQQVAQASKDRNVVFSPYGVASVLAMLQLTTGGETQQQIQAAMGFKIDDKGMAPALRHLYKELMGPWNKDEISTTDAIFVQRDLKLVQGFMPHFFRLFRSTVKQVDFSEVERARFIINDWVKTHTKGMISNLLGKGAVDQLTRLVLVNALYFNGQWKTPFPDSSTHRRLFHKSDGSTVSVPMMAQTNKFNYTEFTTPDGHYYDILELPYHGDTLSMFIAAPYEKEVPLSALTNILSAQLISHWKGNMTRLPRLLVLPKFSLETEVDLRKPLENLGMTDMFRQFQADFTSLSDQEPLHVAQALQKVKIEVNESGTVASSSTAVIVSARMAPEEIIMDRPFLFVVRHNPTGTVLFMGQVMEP

Take `O=C(O)C(=O)N(Cc1ccccc1)c1ccc(-c2ccc(OC(F)(F)F)cc2)cc1` [compound 6, N-benzyl-N-[4′-(trifluoromethoxy)biphenyl-4-yl]oxamic Acid]: on recombinant human PAI-1 [1], the inhibition at 5 µM worked out at 6% and the inhibition at 10 µM was found to be 12%.
As to `O=C(O)C(=O)N(Cc1ccc(C(F)(F)F)cc1)c1ccc(-c2ccc(OC(F)(F)F)cc2)cc1` [compound 34, N-[4′-(trifluoromethoxy)biphenyl-4-yl]-N-[4-(trifluoromethyl)benzyl]oxamic Acid], at recombinant human PAI-1 [1], the inhibition at 5 µM amounted to 15%, the inhibition at 10 µM is 38% and the inhibition at 25 µM stood at 81%.
Take `CC(C)(C)c1ccc(CN(C(=O)C(=O)O)c2ccc(-c3ccc(C(F)(F)F)cc3)cc2)cc1` [compound 24, N-[4-(tert-butyl)benzyl]-N-[4′-(trifluoromethyl)phenyl-4-yl]oxamic Acid]: the “Inhibition Rate of Human PAI-1 Activity (%)” value on recombinant human PAI-1 [1] (compound 5 μM) amounted to 7%; on recombinant human PAI-1 [1] (compound 10 μM) it was 35%; on recombinant human PAI-1 [1] (compound 25 μM), 74%.
`CC(C)(C)c1ccc(CN(C(=O)C(=O)O)c2ccc(Cl)c(-c3ccc(OC(F)(F)F)cc3)c2)cc1` [compound 66, N-[4-(tert-butyl)benzyl]-N-[2-chloro-4′-(trifluoromethoxy)biphenyl-5-yl]oxamic Acid]: the inhibition at 0.1 µM on recombinant human PAI-1 [2] was 6%. On recombinant human PAI-1 [3], the inhibition at 3 µM is greater than 99% and the IC50 worked out at 1140 nM. Further, the IC50 on recombinant rat PAI-1 amounted to 1550 nM.
For the compound `CCN(CC)c1ccc(N(Cc2ccc(C(C)(C)C)cc2)C(=O)C(=O)O)c(-c2ccc(OC(F)(F)F)cc2)c1` [compound 88, N-[4-(tert-butyl)benzyl]-N-[5-diethylamino-4′-(trifluoromethoxy)biphenyl-2-yl]oxamic Acid], the inhibition at 0.1 µM at recombinant human PAI-1 [2] was determined as 0%. The inhibition at 0.3 µM on recombinant human PAI-1 [2] (compound 0.3 μM) amounted to 0%. Further, the half-maximal inhibitory concentration (IC50) came out at 1130 nM at recombinant human PAI-1 [3] and 1890 nM at recombinant rat PAI-1.
Consider `CCCCOc1ccc(-c2ccc(OC(F)(F)F)cc2)cc1N(Cc1ccc(C(C)(C)C)cc1)C(=O)C(=O)O` [compound 69, N-[4-(tert-butyl)benzyl]-N-[4-butoxy-4′-(trifluoromethoxy)biphenyl-3-yl]oxamic Acid], for which the inhibition at 0.1 µM at recombinant human PAI-1 [2] was 0%. The IC50 on recombinant human PAI-1 [3] was 880 nM. Also, at recombinant rat PAI-1, the inhibition at 10 µM is greater than 99% and the IC50 was found to be 1280 nM.
On to `CC(C)(C)c1ccccc1N(C(=O)C(=O)O)c1ccccc1-c1ccc(OC(F)(F)F)cc1` [compound 37, N-[2-(tert-butyl)phenyl]-N-[4′-(trifluoromethoxy)biphenyl-2-yl]oxamic Acid], for which, on recombinant human PAI-1 [1], the inhibition at 5 µM was 25%, the inhibition at 10 µM stood at 56% and the inhibition at 25 µM came out at 96%.
Turning to `CCC(CC)Oc1ccc(-c2ccc(OC(F)(F)F)cc2)cc1N(Cc1ccc(C(C)(C)C)cc1)C(=O)C(=O)O` [compound 79, N-[4-(tert-butyl)benzyl]-N-[4-(1-ethylpropoxy)-4′-(trifluoromethoxy)biphenyl-3-yl]oxamic Acid], at recombinant human PAI-1 [2], the inhibition at 0.1 µM was 8%. At recombinant human PAI-1 [3], the inhibition at 3 µM was greater than 99% and the IC50 came out at 740 nM. Besides, at recombinant rat PAI-1, the inhibition at 10 µM is greater than 99% and the IC50 amounted to 1180 nM.
On to `CCCCCOc1ccc(-c2ccc(OC(F)(F)F)cc2)cc1N(Cc1ccc(C(C)(C)C)cc1)C(=O)C(=O)O` [compound 74, N-[4-(tert-butyl)benzyl]-N-[4-pentyloxy-4′-(trifluoromethoxy)biphenyl-3-yl]oxamic acid], for which, at recombinant human PAI-1 [2], the inhibition at 0.1 µM amounted to 0%. Besides, the IC50 on recombinant human PAI-1 [3] came out at 820 nM. In addition, at recombinant rat PAI-1, the inhibition at 10 µM was greater than 99% and the IC50 was found to be 1140 nM.

The values above are taken from patent US7884234B2, “N-phenyloxamide derivatives” (Institute of Medicinal Molecular Design, inc., priority 2006, dated 2011).
